Assay results: patent publication US11382328B2, “Rapid drug discovery methods for pathogen inactivation” (priority 2019, dated 2022)

Tested on: E. coli strain W3110
Assay: Synergy assays: Biolog chemical sensitivity panels with Group IB metal, coefficient of drug interaction (CDI) from relative growth
Type: cell-based
Settings: for CDI (coefficient of drug interaction), copper mixed with biocide: Copper (mM) section; for CDI (coefficient of drug interaction), gold + biocide: Gold (μM)
[1] = 1st of 3 copper concentrations (value not shown), 1st of four biocide concentrations
[2] = 1st of 3 copper concentrations (value not shown), 2nd of four biocide concentrations
[3] = 1st of 3 copper concentrations (value not shown), 3rd of four biocide concentrations
[4] = 1st of 3 copper concentrations (value not shown), 4th of four biocide concentrations
[5] = 2nd of 3 copper concentrations (value not shown), 1st of four biocide concentrations
[6] = 2nd of 3 copper concentrations (value not shown), 2nd of four biocide concentrations
[7] = 2nd of 3 copper concentrations (value not shown), 3rd of four biocide concentrations
[8] = 2nd of 3 copper concentrations (value not shown), 4th of four biocide concentrations
[9] = 3rd of 3 copper concentrations (value not shown), 2nd of four biocide concentrations
[10] = 3rd of 3 copper concentrations (value not shown), 3rd of four biocide concentrations
[11] = 3rd of 3 copper concentrations (value not shown), 4th of four biocide concentrations
[12] = Gold section of Table 5, first of three gold concentrations (μM, value not given), biocide concentration 1 of 4
[13] = Gold section of Table 5, first of three gold concentrations (μM, value not given), biocide concentration 2 of 4
[14] = Gold section of Table 5, first of three gold concentrations (μM, value not given), biocide concentration 3 of 4
[15] = Gold section of Table 5, first of three gold concentrations (μM, value not given), biocide concentration 4 of 4
[16] = Gold section of Table 5, second of three gold concentrations (μM, value not given), biocide concentration 1 of 4
[17] = Gold section of Table 5, second of three gold concentrations (μM, value not given), biocide concentration 2 of 4
[18] = Gold section of Table 5, second of three gold concentrations (μM, value not given), biocide concentration 3 of 4
[19] = Gold section of Table 5, second of three gold concentrations (μM, value not given), biocide concentration 4 of 4
[20] = Gold section of Table 5, third of three gold concentrations (μM, value not given), biocide concentration 1 of 4
[21] = Gold section of Table 5, third of three gold concentrations (μM, value not given), biocide concentration 2 of 4
[22] = Gold section of Table 5, third of three gold concentrations (μM, value not given), biocide concentration 3 of 4
[23] = Gold section of Table 5, third of three gold concentrations (μM, value not given), biocide concentration 4 of 4
[24] = Silver 0.5 μM, 4th of four biocide concentrations, E. coli
[25] = Silver 1.0 μM, 4th of four biocide concentrations, E. coli
[26] = Silver 5.0 μM, 4th of four biocide concentrations, E. coli
[27] = Silver 0.5 μM, biocide concentration 1 of 4
[28] = Silver 0.5 μM, biocide concentration 2 of 4
[29] = Silver 0.5 μM, biocide concentration 3 of 4
[30] = Silver 0.5 μM, biocide concentration 4 of 4
[31] = Silver 1.0 μM, biocide concentration 1 of 4
[32] = Silver 1.0 μM, biocide concentration 2 of 4
[33] = Silver 1.0 μM, biocide concentration 3 of 4
[34] = Silver 1.0 μM, biocide concentration 4 of 4
[35] = Silver 5.0 μM, biocide concentration 1 of 4
[36] = Silver 5.0 μM, biocide concentration 2 of 4
[37] = Silver 5.0 μM, biocide concentration 3 of 4
[38] = Silver 5.0 μM, biocide concentration 4 of 4
[39] = Copper (mM), 1st of 3 copper concentrations (head line not shown), biocide concentration 4 of 4, E. coli
[40] = Copper (mM), 2nd of 3 copper concentrations (head line not shown), biocide concentration 4 of 4, E. coli
[41] = Copper (mM), 3rd of 3 copper concentrations (head line not shown), biocide concentration 4 of 4, E. coli

Molecule: poly-L-lysine
- CDI (coefficient of drug interaction), copper mixed with biocide [1]: 1.15
- CDI (coefficient of drug interaction), copper mixed with biocide [2]: 0.95
- CDI (coefficient of drug interaction), copper mixed with biocide [3]: Tox
- CDI (coefficient of drug interaction), copper mixed with biocide [4]: Tox
- CDI (coefficient of drug interaction), copper mixed with biocide [5]: 1.03
- CDI (coefficient of drug interaction), copper mixed with biocide [6]: 0.96
- CDI (coefficient of drug interaction), copper mixed with biocide [7]: Tox
- CDI (coefficient of drug interaction), copper mixed with biocide [8]: Tox
- CDI (coefficient of drug interaction), copper mixed with biocide [9]: 0.59
- CDI (coefficient of drug interaction), copper mixed with biocide [10]: Tox
- CDI (coefficient of drug interaction), copper mixed with biocide [11]: Tox
- CDI (coefficient of drug interaction) [12]: 1.07
- CDI (coefficient of drug interaction) [13]: 0.98
- CDI (coefficient of drug interaction) [14]: Tox
- CDI (coefficient of drug interaction) [15]: Tox
- CDI (coefficient of drug interaction) [16]: 1.08
- CDI (coefficient of drug interaction) [17]: 1.06
- CDI (coefficient of drug interaction) [18]: Tox
- CDI (coefficient of drug interaction) [19]: Tox
- CDI (coefficient of drug interaction) [20]: 0.93
- CDI (coefficient of drug interaction) [21]: 0.88
- CDI (coefficient of drug interaction) [22]: Tox
- CDI (coefficient of drug interaction) [23]: Tox
- CDI (coefficient of drug interaction), silver + biocide (Silver 0.5 μM, 1st of four biocide concentrations, E. coli): 0.92
- CDI (coefficient of drug interaction), silver + biocide (Silver 0.5 μM, 2nd of four biocide concentrations, E. coli): 0.96
- CDI (coefficient of drug interaction), silver + biocide (Silver 0.5 μM, 3rd of four biocide concentrations, E. coli): Tox
- CDI (coefficient of drug interaction), silver + biocide [24]: Tox
- CDI (coefficient of drug interaction), silver + biocide (Silver 1.0 μM, 1st of four biocide concentrations, E. coli): 0.88
- CDI (coefficient of drug interaction), silver + biocide (Silver 1.0 μM, 2nd of four biocide concentrations, E. coli): 0.88
- CDI (coefficient of drug interaction), silver + biocide (Silver 1.0 μM, 3rd of four biocide concentrations, E. coli): Tox
- CDI (coefficient of drug interaction), silver + biocide [25]: Tox
- CDI (coefficient of drug interaction), silver + biocide (Silver 5.0 μM, 3rd of four biocide concentrations, E. coli): Tox
- CDI (coefficient of drug interaction), silver + biocide [26]: Tox

Molecule: CN(C)C(=O)/N=N/C(=O)N(C)C [diamide]
- CDI (coefficient of drug interaction), copper mixed with biocide [1]: 1.02
- CDI (coefficient of drug interaction), copper mixed with biocide [2]: 0.98
- CDI (coefficient of drug interaction), copper mixed with biocide [3]: 0.96
- CDI (coefficient of drug interaction), copper mixed with biocide [4]: 0.99
- CDI (coefficient of drug interaction), copper mixed with biocide [5]: 0.78
- CDI (coefficient of drug interaction), copper mixed with biocide [6]: 0.72
- CDI (coefficient of drug interaction), copper mixed with biocide [7]: Tox
- CDI (coefficient of drug interaction), copper mixed with biocide [8]: Tox
- CDI (coefficient of drug interaction), copper mixed with biocide (3rd of 3 copper concentrations (value not shown), 1st of four biocide concentrations): 0.52
- CDI (coefficient of drug interaction), copper mixed with biocide [9]: 0.51
- CDI (coefficient of drug interaction), copper mixed with biocide [10]: 0.52
- CDI (coefficient of drug interaction), copper mixed with biocide [11]: 0.56
- CDI (coefficient of drug interaction) [12]: 0.99
- CDI (coefficient of drug interaction) [13]: 0.86
- CDI (coefficient of drug interaction) [14]: Tox
- CDI (coefficient of drug interaction) [15]: Tox
- CDI (coefficient of drug interaction) [16]: 0.98
- CDI (coefficient of drug interaction) [17]: 0.89
- CDI (coefficient of drug interaction) [18]: Tox
- CDI (coefficient of drug interaction) [19]: Tox
- CDI (coefficient of drug interaction) [20]: 0.98
- CDI (coefficient of drug interaction) [21]: 0.93
- CDI (coefficient of drug interaction) [22]: Tox
- CDI (coefficient of drug interaction) [23]: Tox
- CDI [27]: 1.19
- CDI [28]: 1.07
- CDI [29]: Tox
- CDI [30]: Tox
- CDI [31]: 1.01
- CDI [32]: 0.90
- CDI [33]: Tox
- CDI [34]: Tox
- CDI [35]: 0.97
- CDI [36]: 0.40
- CDI [37]: Tox
- CDI [38]: Tox

Molecule: O=C(O)c1ccccc1S [thiosalicylic acid]
- CDI (coefficient of drug interaction), silver + biocide [24]: Tox
- CDI (coefficient of drug interaction), silver + biocide [25]: Tox
- CDI (coefficient of drug interaction), silver + biocide [26]: Tox

Molecule: CN(CC[C@H](N)CC(=O)N[C@H]1C=C[C@H](n2ccc(N)nc2=O)O[C@@H]1C(=O)O)C(=N)N [blasticidin S]
- CDI (coefficient of drug interaction) (Copper (mM), 1st of 3 copper concentrations (head line not shown), biocide concentration 1 of 4, E. coli): 1.05
- CDI (coefficient of drug interaction) (Copper (mM), 1st of 3 copper concentrations (head line not shown), biocide concentration 2 of 4, E. coli): 1.14
- CDI (coefficient of drug interaction) (Copper (mM), 1st of 3 copper concentrations (head line not shown), biocide concentration 3 of 4, E. coli): 0.95
- CDI (coefficient of drug interaction) [39]: Tox
- CDI (coefficient of drug interaction) (Copper (mM), 2nd of 3 copper concentrations (head line not shown), biocide concentration 1 of 4, E. coli): 0.90
- CDI (coefficient of drug interaction) (Copper (mM), 2nd of 3 copper concentrations (head line not shown), biocide concentration 2 of 4, E. coli): 0.96
- CDI (coefficient of drug interaction) (Copper (mM), 2nd of 3 copper concentrations (head line not shown), biocide concentration 3 of 4, E. coli): Tox
- CDI (coefficient of drug interaction) [40]: Tox
- CDI (coefficient of drug interaction) (Copper (mM), 3rd of 3 copper concentrations (head line not shown), biocide concentration 1 of 4, E. coli): 0.71
- CDI (coefficient of drug interaction) (Copper (mM), 3rd of 3 copper concentrations (head line not shown), biocide concentration 2 of 4, E. coli): 0.65
- CDI (coefficient of drug interaction) (Copper (mM), 3rd of 3 copper concentrations (head line not shown), biocide concentration 3 of 4, E. coli): 0.49
- CDI (coefficient of drug interaction) [41]: Tox
- CDI (coefficient of drug interaction) [12]: 1.05
- CDI (coefficient of drug interaction) [13]: 0.95
- CDI (coefficient of drug interaction) [14]: 0.97
- CDI (coefficient of drug interaction) [15]: Tox
- CDI (coefficient of drug interaction) [16]: 1.06
- CDI (coefficient of drug interaction) [17]: 1.08
- CDI (coefficient of drug interaction) [18]: 1.11
- CDI (coefficient of drug interaction) [19]: Tox
- CDI (coefficient of drug interaction) [20]: 1.09
- CDI (coefficient of drug interaction) [21]: 1.06
- CDI (coefficient of drug interaction) [22]: 1.11
- CDI (coefficient of drug interaction) [23]: Tox
- CDI [27]: 1.04
- CDI [28]: 0.90
- CDI [29]: 0.92
- CDI [30]: Tox
- CDI [31]: 1.01
- CDI [32]: 1.02
- CDI [33]: Tox
- CDI [34]: Tox
- CDI [35]: 1.52
- CDI [36]: 1.40
- CDI [37]: Tox
- CDI [38]: Tox

Molecule: CCCCCCCC(=O)[O-].[Na+] [sodium caprylate]
- CDI (coefficient of drug interaction) [39]: Tox
- CDI (coefficient of drug interaction) [40]: Tox
- CDI (coefficient of drug interaction) [41]: Tox
- CDI (coefficient of drug interaction), gold + biocide (first of 3 gold concentrations, biocide concentration 3 of 4): Tox
- CDI (coefficient of drug interaction), gold + biocide (first of 3 gold concentrations, biocide concentration 4 of 4): Tox
- CDI (coefficient of drug interaction), gold + biocide (second of 3 gold concentrations, biocide concentration 3 of 4): Tox
- CDI (coefficient of drug interaction), gold + biocide (second of 3 gold concentrations, biocide concentration 4 of 4): Tox
- CDI (coefficient of drug interaction), gold + biocide (third of 3 gold concentrations, biocide concentration 3 of 4): Tox
- CDI (coefficient of drug interaction), gold + biocide (third of 3 gold concentrations, biocide concentration 4 of 4): Tox
- CDI [29]: Tox
- CDI [30]: Tox
- CDI [33]: Tox
- CDI [34]: Tox
- CDI [37]: Tox
- CDI [38]: Tox
